Measurements as given in article PMC9224473 (International Journal of Molecular Sciences, 2022).
≈ marks a conversion by molar mass, not a printed value. Like-named read-outs stand apart in the source and are kept apart here.

Columns and labels:
S. aureus ATCC 29213 = assay: MIC, broth microdilution, standard strain; type: cell-based, Staphylococcus aureus; conditions: 35 °C; for MIC: Staphylococcus aureus, ATCC29213, 19 h
[1] = system: standard bacteria strains; assay: Antimicrobial screening (MIC), standard bacteria strains; type: cell-based; conditions: MIC evaluation
Description: Obtained compounds were examined for antimicrobial potency. Firstly, all of them were screened for their minimal inhibitory concentrations (MICs). A suitable set of bacteria was used, including representative standard Gram-positive and Gram-negative rods (Table 2 and Table 3). For clarity, results are presented for menthol and thymol derivatives separately.
The antimicrobial assays were conducted using reference strains of bacteria derived from international microbe collections: American Type Culture Collection (ATCC) and National Collection of Type Culture (NCTC). The following standard strains of bacteria were used: Gram-positive—Staphylococcus aureus NCTC 4163, Staphylococcus aureus ATCC 25923, Staphylococcus aureus ATCC 6538, Staphylococcus aureus ATCC 29213, Staphylococcus epidermidis ATCC 12228, Staphylococcus epidermidis ATCC 35984, Gram-negative: Escherichia coli ATCC 25922, Pseudomonas aeruginosa ATCC 15442. […] Antimicrobial activity was examined by the Minimal Inhibitory Concentration (MIC) method under standard procedures provided by CLSI with some modifications. MIC was determined by the two-fold serial broth microdilution method in 96-well microtitration plates using Mueller–Hinton II broth medium (Becton Dickinson, Franklin Lakes, NJ, USA). The final inoculum of all studied bacteria was 10^6 CFU/mL (colony forming unit per millilitre). The stock solution of tested compounds was prepared in dimethyl sulfoxide (DMSO) and diluted to a maximum of 1% of solvent content with a sterile medium.

[2] = system: S. epidermidis ATCC 12228; assay: MIC, broth microdilution, standard strain; type: cell-based, Staphylococcus epidermidis; conditions: 35 °C; for MIC: Staphylococcus epidermidis, ATCC12228, 19 h
[3] = system: S. epidermidis ATCC 35984; assay: MIC, broth microdilution, standard strain; type: cell-based, Staphylococcus epidermidis; conditions: 35 °C; for MIC: Staphylococcus epidermidis, ATCC35984, 19 h
P. aeruginosa ATCC 15442 = assay: MIC, broth microdilution, standard strain; type: cell-based, Pseudomonas aeruginosa; conditions: 35 °C; for MIC: Pseudomonas aeruginosa, ATCC15442, 19 h
E. coli ATCC 25922 = assay: MIC, broth microdilution, standard strain; type: cell-based, Escherichia coli; conditions: 35 °C; for MIC: Escherichia coli, ATCC25922, 19 h; for MIC E. coli ATCC 25922: 19 h
S. aureus ATCC 6538 = assay: MIC, broth microdilution, standard strain; type: cell-based, Staphylococcus aureus; conditions: 35 °C; for MIC: Staphylococcus aureus, ATCC6538, 19 h
S. aureus ATCC 25923 = assay: MIC, broth microdilution, standard strain; type: cell-based, Staphylococcus aureus; conditions: 35 °C; for MIC: Staphylococcus aureus, ATCC25923, 19 h
[4] = system: SW480 (human primary colon cancer); assay: MTT cytotoxicity assay; type: cell-based; conditions: mean SD
Description: (§1) The human cell lines SW480 (primary colon cancer), SW620 (lymph node metastatic colon cancer from the same patient as primary cancer cells), HCT116 (colon carcinoma), HepG2 (liver cancer), and HaCaT (immortalized keratinocytes) were obtained from the American Type Culture Collection (ATCC, Rockville, MD, USA). The SW480, SW620 and HCT116 cells were grown in MEM (ThermoSci, Waltham, MA, USA), HepG2 and HaCaT in DMEM High Glucose (Biowest SAS, Nuaillé, France) supplemented with 10% foetal bovine serum (FBS), HEPES (20 mM), and antibiotics (100 U mL^−1 of Penicillin and 100 μg mL^−1 of Streptomycin). The cells were incubated in a humidified incubator at 37 °C/5% CO2, until 80–90% confluence was reached.
(§2) The cell viability was assessed by using of MTT salt [3-(4,5-dimethylthiazol-2-yl)-2,5-diphenyltetrazolium bromide] converted by mitochondrial dehydrogenase, occurring in living cells. The cells were seeded in 96-well plates at a density of 1 × 10^4 cells per well and allowed to adhere for 24 h at 37 °C in a CO2 humidified incubator. […]. The untreated cells were used as the control.
(§3) After 72 h incubation, the medium was replaced with 200 µL per well of free-serum medium containing 0.5 mg mL^−1 MTT and incubated for 4 h at 37 °C in a CO2 humidified incubator. Subsequently, the medium was removed and dimethyl sulfoxide (DMSO) with isopropanol (1:1) was added to dissolve the formazan crystals. The optical density was measured using UVM 340 reader (ASYS Hitech GmbH, Eugendorf, Austria) at a wavelength of 570 nm. The experiments were repeated three times. The cell viability was calculated as the percent of MTT reduced in treated cells versus control cells (untreated cells). The number of viable cells cultured without tested compounds was assumed as 100%. A decreased relative MTT level indicates decreased cell viability. The IC50 values were estimated using CompuSyn version 1.0.

[5] = system: HCT116 (human colon cancer); assay: MTT cytotoxicity assay; type: cell-based; conditions: mean SD
Description: as §1, §2, §3

[6] = system: HaCaT (human immortal keratinocyte cell line); assay: MTT cytotoxicity assay; type: cell-based; conditions: 72 h, mean SD, read-out: IC50 HaCaT (normal cells)
Description: as §1, §2, §3

[7] = system: HepG2 (human liver cancer); assay: MTT cytotoxicity assay; type: cell-based; conditions: mean SD
Description: as §1, §2, §3

S. aureus NCTC 4163 = assay: MIC, broth microdilution, standard strain; type: cell-based, Staphylococcus aureus; conditions: 35 °C; for MIC: Staphylococcus aureus, NCTC4163, 19 h
[8] = system: SW620 (human metastatic colon cancer); assay: MTT cytotoxicity assay; type: cell-based; conditions: mean SD
Description: as §1
The cell viability was assessed by using of MTT salt [3-(4,5-dimethylthiazol-2-yl)-2,5-diphenyltetrazolium bromide] converted by mitochondrial dehydrogenase, occurring in living cells. […] The untreated cells were used as the control.
as §3, with “Subsequently,” for “After 72 h incubation, the medium was replaced with 200 µL per well of free-serum medium containing 0.5 mg mL^−1 MTT and incubated for 4 h at 37 °C in a CO2 humidified incubator. Subsequently,”

S. epidermidis KR 4243 = assay: MIC, broth microdilution, clinical strain; type: cell-based, Staphylococcus epidermidis; conditions: 35 °C; for MIC: Staphylococcus epidermidis, KR4243, 19 h
S. pasteuri KR 4358 = assay: MIC, broth microdilution, clinical strain; type: cell-based, Staphylococcus pasteuri; conditions: 35 °C; for MIC: Staphylococcus pasteuri, KR4358, 19 h
E. coli 600 = assay: MIC, broth microdilution, clinical strain; type: cell-based, Escherichia coli; conditions: 35 °C; for MIC: Escherichia coli, 600, 19 h
P. aeruginosa 659 = assay: MIC, broth microdilution, clinical strain; type: cell-based, Pseudomonas aeruginosa; conditions: for MIC: Pseudomonas aeruginosa, 659, read-out: MIC P. aeruginosa 659, 19 h, 35 °C
S. aureus T 5591 = assay: MIC, broth microdilution, clinical strain; type: cell-based, Staphylococcus aureus; conditions: 35 °C; for MIC: Staphylococcus aureus, T5591, 19 h
E. coli 520 = assay: MIC, broth microdilution, clinical strain; type: cell-based, Escherichia coli; conditions: 35 °C; for MIC: Escherichia coli, 520, 19 h
S. aureus T 5595 = assay: MIC, broth microdilution, clinical strain; type: cell-based, Staphylococcus aureus; conditions: 35 °C; for MIC: Staphylococcus aureus, T5595, 19 h
E. coli 510 = assay: MIC, broth microdilution, clinical strain; type: cell-based, Escherichia coli; conditions: 35 °C; for MIC: Escherichia coli, 510, 19 h

Molecule | MIC (S. aureus ATCC 29213) [µg/mL] | MIC [2] [µg/mL] | MIC [3] [µg/mL] | MIC (P. aeruginosa ATCC 15442) [µg/mL] | MIC (E. coli ATCC 25922) [µg/mL] | MIC (S. aureus ATCC 6538) [µg/mL] | MIC (S. aureus ATCC 25923) [µg/mL] | IC50 ([4]; Homo sapiens, SW480, 72 h) [µM] | IC50 ([5]; Homo sapiens, HCT-116, 72 h) [µM] | IC50 ([6]; Homo sapiens, HaCaT) [µM] | IC50 ([7]; Homo sapiens, HepG2, 72 h) [µM] | MIC (S. aureus NCTC 4163) [µg/mL] | IC50 ([8]; Homo sapiens, SW-620, 72 h) [µM] | MIC E. coli ATCC 25922 (E. coli ATCC 25922) [µg/mL] | MIC (S. epidermidis KR 4243) [µg/mL] | MIC (S. pasteuri KR 4358) [µg/mL] | MIC (E. coli 600) [µg/mL] | MIC (P. aeruginosa 659) [µg/mL] | MIC (S. aureus T 5591) [µg/mL] | MIC (E. coli 520) [µg/mL] | other results
CC(C)[C@@H]1CC[C@@H](C)C[C@H]1OC(=O)CCCCOC(=O)c1cn(C2CC2)c2cc(N3CCN(CCCCC(=O)O[C@@H]4C[C@H](C)CC[C@H]4C(C)C)CC3)c(F)cc2c1=O [Compound 7, 5-((1R,2S,5R)-2-isopropyl-5-methylcyclohexyloxy)-5-oxopentyl-1-cyclopropyl-6-fluoro-7-{4-[5-((1R,2S,5R)-2-isopropyl-5-methylcyclohexyloxy)-5-oxopentyl]piperazin-1-yl}-4-oxo-1,4-dihydroquinoline-3-carboxylate] | > 256 | > 256 | > 256 | > 256 | > 256 | > 256 | > 256 | 45.5 ± 5.5 | 49.3 ± 6.5 | 25.6 ± 1.2 | 32.8 ± 3.1 | > 256 | 54.1 ± 0.5 |  |  |  |  |  |  |  | Antimicrobial activity (in words) [1]: rather inactive
1-cyclopropyl-6-fluoro-7-{4-[2-(2-isopropyl-5-methylphenoxy)acetyl]piperazin-1-yl}-4-oxo-1,4-dihydroquinoline-3-carboxylic acid [Compound 10] |  |  |  |  |  |  |  |  |  |  |  |  |  | 32 |  |  |  |  |  |  | MIC S. epidermidis KR 4243 (S. epidermidis KR 4243; 19 h): 16 µg/mL; MIC S. pasteuri KR 4358 (S. pasteuri KR 4358; 19 h): 16 µg/mL; MIC S. aureus ATCC 29213 (S. aureus ATCC 29213; 19 h): 4 µg/mL; MIC S. epidermidis ATCC 12228 ([2]; 19 h): 8 µg/mL; MIC E. coli 600 (E. coli 600; 19 h): 64 µg/mL; MIC S. epidermidis ATCC 35984 ([3]; 19 h): 8 µg/mL; MIC P. aeruginosa 659 (P. aeruginosa 659; 19 h, 35 °C): 256 µg/mL; MIC S. aureus T 5591 (S. aureus T 5591; 19 h): 8 µg/mL; MIC E. coli 520 (E. coli 520; 19 h): 64 µg/mL; MIC P. aeruginosa ATCC 15442 (P. aeruginosa ATCC 15442; 19 h): 256 µg/mL; MIC S. aureus T 5595 (S. aureus T 5595; 19 h): 8 µg/mL; MIC E. coli 510 (E. coli 510; 19 h): >256 µg/mL; MIC S. aureus ATCC 6538 (S. aureus ATCC 6538; 19 h): 4 µg/mL; MIC S. aureus ATCC 25923 (S. aureus ATCC 25923; 19 h): 4 µg/mL; IC50 ([4]; 72 h): 57.2 ± 2.7 µM; IC50 ([5]; 72 h): > 100 µM; IC50 [6]: 37.1 ± 2.1 µM; IC50 ([7]; 72 h): 26.1 ± 0.1 µM; MIC S. aureus NCTC 4163 (S. aureus NCTC 4163; 19 h): 4 µg/mL; IC50 ([8]; 72 h): 59 ± 1.2 µM
CC(C)[C@@H]1CC[C@@H](C)C[C@H]1OC(=O)CCN1CCN(c2cc3c(cc2F)c(=O)c(C(=O)O)cn3C2CC2)CC1 [Compound 3, 1-cyclopropyl-6-fluoro-7-{4-[3-((1R,2S,5R)-2-isopropyl-5-methylcyclohexyloxy)-3-oxopropyl]piperazin-1-yl}-4-oxo-1,4-dihydroquinoline-3-carboxylic acid] | 4 (≈ 7.38 µM) | 4 (≈ 7.38 µM) | 4 (≈ 7.38 µM) | 32 (≈ 59.1 µM) | 2 to 4 (≈ 3.69 to 7.38 µM) | 4 (≈ 7.38 µM) | 4 (≈ 7.38 µM) | 30.3 ± 1.2 | 27.1 ± 3.1 | 45.5 ± 5.1 | 36.8 ± 3.8 | 4 (≈ 7.38 µM) | 38.6 ± 3.8 | 4 (≈ 7.38 µM) | 4 (≈ 7.38 µM) | 4 (≈ 7.38 µM) | 4 (≈ 7.38 µM) | 64 (≈ 118 µM) | 4 (≈ 7.38 µM) | 4 (≈ 7.38 µM) | MIC (S. aureus T 5595): 4 µg/mL (≈ 7.38 µM); MIC (E. coli 510): 256 µg/mL (≈ 473 µM)
Cc1ccc(C(C)C)c(OC(=O)CCCCCN2CCN(c3cc4c(cc3F)c(=O)c(C(=O)O)cn4C3CC3)CC2)c1 [Compound 14, 1-cyclopropyl-6-fluoro-7-{4-[6-(2-isopropyl-5-methylphenoxy)-6-oxohexyl]piperazin-1-yl}-4-oxo-1,4-dihydroquinoline-3-carboxylic acid] | 2 (≈ 3.46 µM) | 1 (≈ 1.73 µM) | 1 (≈ 1.73 µM) | 16 (≈ 27.7 µM) | 2 to 4 (≈ 3.46 to 6.92 µM) | 2 (≈ 3.46 µM) | 1 (≈ 1.73 µM) | 35.2 ± 1.2 | 38.1 ± 3.4 | 31.8 ± 1.9 | 44.4 ± 3.5 | 1 (≈ 1.73 µM) | 53.1 ± 0.3 | 2 (≈ 3.46 µM) | 2 (≈ 3.46 µM) | 2 (≈ 3.46 µM) | 8 (≈ 13.8 µM) | 64 (≈ 111 µM) | 4 (≈ 6.92 µM) | 16 (≈ 27.7 µM) | MIC (S. aureus T 5595): 2 µg/mL (≈ 3.46 µM); MIC (E. coli 510): 128 µg/mL (≈ 222 µM)
CC(C)[C@@H]1CC[C@@H](C)C[C@H]1OCC(=O)N1CCN(c2cc3c(cc2F)c(=O)c(C(=O)O)cn3C2CC2)CC1 [Compound 1, 1-cyclopropyl-6-fluoro-7-{4-[2-((1R,2S,5R)-2-isopropyl-5-methylcyclohexyloxy)acetyl]piperazin-1-yl}-4-oxo-1,4-dihydroquinoline-3-carboxylic acid] | 4 (≈ 7.58 µM) | 4 (≈ 7.58 µM) | 2 (≈ 3.79 µM) | > 256 | 32 (≈ 60.6 µM) | 4 (≈ 7.58 µM) | 4 (≈ 7.58 µM) | 39.9 ± 4.5 | 34.9 ± 1.4 | 21.7 ± 0.8 | 23.1 ± 0.2 | 2 (≈ 3.79 µM) | 28.1 ± 2.1 |  | 8 (≈ 15.2 µM) | 8 (≈ 15.2 µM) | 32 (≈ 60.6 µM) | > 256 | 4 (≈ 7.58 µM) | 32 (≈ 60.6 µM) | MIC (S. aureus T 5595): 8 µg/mL (≈ 15.2 µM); MIC (E. coli 510): > 256 µg/mL
